From PubChem BioAssay (NCI)
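Protocol summary: plate cells (96-well), add compound at 5 concentrations, incubate 48 h, interpolate endpoints linearly. GI50 = concentration required for 50% inhibition of growth. At the TGI there is no net growth.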

Key:
Assay in all cases: NCI anticancer screen, dose series, 48 h
[1] = tested on: SF-268 CNS
[2] = tested on: PC-3 prostate
[3] = tested on: HOP-92 NSCLC
[4] = tested on: OVCAR-3 ovarian
[5] = tested on: SK-MEL-5 melanoma
[6] = tested on: M14 melanoma
[7] = tested on: NCI-H226 lung
[8] = tested on: HT29 colon
[9] = tested on: UACC-62 melanoma
[10] = tested on: UACC-257 melanoma
[11] = tested on: SN12C renal
[12] = tested on: CAKI-1 renal
[13] = tested on: OVCAR-5 ovarian
[14] = tested on: COLO 205 colon
[15] = tested on: SK-OV-3 ovarian
[16] = tested on: SR leukemia
[17] = tested on: MOLT-4 leukemia
[18] = tested on: SF-295 CNS
[19] = tested on: OVCAR-8 ovarian
[20] = tested on: DU-145 prostate
[21] = tested on: KM12 colon
[22] = tested on: ACHN renal
[23] = tested on: A498 renal
[24] = tested on: TK-10 renal
[25] = tested on: CCRF-CEM leukemia
[26] = tested on: MDA-MB-231 breast
[27] = tested on: HCT-116 colon
[28] = tested on: HCC-2998 colon
[29] = tested on: RXF 393 renal
[30] = tested on: SK-MEL-28 melanoma
[31] = tested on: UO-31 renal
[32] = tested on: T-47D breast
[33] = tested on: LOX IMVI melanoma
[34] = tested on: SNB-19 CNS
[35] = tested on: SK-MEL-2 melanoma
[36] = tested on: NCI-H522 lung
[37] = tested on: OVCAR-4 ovarian
[38] = tested on: NCI-H460 lung
[39] = tested on: MDA-MB-435
[40] = tested on: BT-549 breast
[41] = tested on: IGROV1 ovarian
[42] = tested on: HL-60(TB) leukemia
[43] = tested on: HOP-62 NSCLC
[44] = tested on: A549 NSCLC
[45] = tested on: K-562 leukemia
[46] = tested on: MALME-3M melanoma
[47] = tested on: SNB-75 CNS
[48] = tested on: SF-539 CNS
[49] = tested on: U251 CNS
[50] = tested on: HCT-15 colon
[51] = tested on: NCI/ADR-RES ovarian
[52] = tested on: EKVX NSCLC
[53] = tested on: NCI-H23 lung
[54] = tested on: SW-620 colon

COc1ccc2nc3ccccc3c(NCc3ccc(C)cc3)c2c1
GI50 [1]: 2270 nM
TGI [1]: 5440 nM
GI50 [2]: 1640 nM
TGI [2]: 4490 nM
GI50 [3]: 1270 nM
TGI [3]: 3120 nM
GI50 [4]: 2000 nM
TGI [4]: 4360 nM
GI50 [5]: 1770 nM
TGI [5]: 3190 nM
GI50 [6]: 1690 nM
TGI [6]: 3610 nM
GI50 [7]: 1970 nM
TGI [7]: 5120 nM
GI50 [8]: 1430 nM
TGI [8]: 7160 nM
GI50 [9]: 1640 nM
TGI [9]: 3260 nM
GI50 [10]: 2120 nM
TGI [10]: 5000 nM
GI50 [11]: 1640 nM
TGI [11]: 3780 nM
GI50 [12]: 1590 nM
TGI [12]: 2980 nM
GI50 [13]: 2100 nM
TGI [13]: 6020 nM
GI50 [14]: 1650 nM
TGI [14]: 3780 nM
GI50 [15]: 2580 nM
TGI [15]: 8410 nM
GI50 [16]: 1810 nM
TGI [16]: 6040 nM
GI50 [17]: 3040 nM
TGI [17]: 11500 nM
GI50 [18]: 1340 nM
TGI [18]: 2740 nM
GI50 [19]: 2240 nM
TGI [19]: 7270 nM
GI50 [20]: 2640 nM
TGI [20]: 7680 nM
GI50 [21]: 2600 nM
TGI [21]: 8490 nM
GI50 [22]: 1580 nM
TGI [22]: 3030 nM
GI50 [23]: 1650 nM
TGI [23]: 3050 nM
GI50 [24]: 1970 nM
TGI [24]: 4150 nM
GI50 [25]: 2370 nM
TGI [25]: 11400 nM
GI50 [26]: 1760 nM
TGI [26]: 4120 nM
GI50 [27]: 848 nM
TGI [27]: 6240 nM
GI50 [28]: 1730 nM
TGI [28]: 3260 nM
GI50 [29]: 1320 nM
TGI [29]: 2830 nM
GI50 [30]: 1750 nM
TGI [30]: 3290 nM
GI50 [31]: 1280 nM
TGI [31]: 2650 nM
GI50 [32]: 1890 nM
TGI [32]: 4420 nM
GI50 [33]: 1540 nM
TGI [33]: 2950 nM
GI50 [34]: 2970 nM
TGI [34]: 11400 nM
GI50 [35]: 1850 nM
TGI [35]: 3680 nM
GI50 [36]: 1940 nM
TGI [36]: 4670 nM
GI50 [37]: 2250 nM
TGI [37]: 6510 nM
GI50 [38]: 1970 nM
TGI [38]: 4150 nM
GI50 [39]: 1440 nM
TGI [39]: 2890 nM
GI50 [40]: 2010 nM
TGI [40]: 4700 nM
GI50 [41]: 2190 nM
TGI [41]: 6340 nM
GI50 [42]: 2030 nM
TGI [42]: 4580 nM
GI50 [43]: 1780 nM
TGI [43]: 3700 nM
GI50 [44]: 1960 nM
TGI [44]: 4710 nM
GI50 [45]: 1610 nM
TGI [45]: > 100000 nM
GI50 [46]: 1810 nM
TGI [46]: 3290 nM
GI50 [47]: 1490 nM
TGI [47]: 2850 nM
GI50 [48]: 1680 nM
TGI [48]: 3180 nM
GI50 [49]: 1840 nM
TGI [49]: 3690 nM
GI50 [50]: 1730 nM
TGI [50]: 4760 nM
GI50 [51]: 1790 nM
TGI [51]: 4980 nM
GI50 [52]: 2500 nM
TGI [52]: 7940 nM
GI50 [53]: 1680 nM
TGI [53]: 4260 nM
GI50 [54]: 1570 nM
TGI [54]: 4240 nM
